# Legend:
# OVCAR-8 cells [1] = assay: Flow cytometric analysis of ROS generation (carboxy-H2DCFDA), OVCAR-8; format: cell-based, human; details: OVCAR-8, 2, 4.5 or 9 µM, 48 or 72 h
# Procedure: (§1) ROS generation after treatment with the compounds was analyzed using a carboxy-20, 70-dichlorodihydrofluorescein diacetate probe (carboxy-H2DCFDA) (Invitrogen, Waltham, MA). ROS species oxidize this molecule to green fluorescent dichlorofluorescein (DCF), allowing their detection inside the cells using a flow cytometer. A total of 24 h prior to treatments cells were seeded at 70,000 cells/well in 6-well plates in phenol red-free RPMI. Then, they were treated for 48 or 72 h at 37 °C with different concentrations of compound 10 (0.7, 1.5, or 3 μM for NCI-H460 cells and 2, 4.5, or 9 μM for OVCAR-8 cells) for 48 or 72 h at 37 °C. After treatments, cells were washed with PBS and incubated for 30 min at 37 °C in the dark with either 1 μM (NCI-H460 cells) or 0.5 μM (OVCAR-8 cells) carboxy-H2DCFDA diluted in PBS. Cells were then collected with phenol red-free trypsin and analyzed using a NovoCyte Flow cytometer. NovoExpress software (ACEA Biosciences, San Diego, CA, USA) was used to stablish the geometric mean fluorescence intensity of 10,000 cells.
# OVCAR-8 cells [2] = assay: Apoptosis analysis, Annexin V-Alexa Fluor 488/PI flow cytometry, OVCAR-8; format: cell-based, human; details: OVCAR-8, 1.65 µM, 72 h
# Procedure: (§2) Quantitative analysis of apoptotic cell death caused by compound 10 treatment was carried out by flow cytometry using the Alexa Fluor 488 annexin V/PI Vybrant Apoptosis Assay Kit (Molecular Probes, Eugene, OR, USA) as previously described. Briefly, NCI-H460 cells (7 × 10^4 per well) and OVCAR-8 cells (8 × 10^4 per well) were seeded into 6-well plates and then treated with compound 10 (0.64 μM for NCI-H460 and 1.65 μM for OVCAR-8) for 72 h in serum starved medium. After treatment, we collected attached and floating cells, washed them in cold PBS and stained them for 15 min in the dark with Annexin V-Alexa Fluor 488 and propidium iodide (PI) at room temperature. Cells were analyzed using NovoCyte Flow Cytometer (ACEA Biosciences, San Diego, CA, USA) and NovoExpress software (ACEA Biosciences, San Diego, CA, USA). At least 10,000 cells within the gated region were analyzed.
# [3] = tested on: NCI-H460 human lung carcinoma cells; assay: Cell proliferation assay (MTT), NCI-H460; format: cell-based
# Procedure: (§3) Cells were seeded into 96-well plates at densities of 1500 cells per well for OVCAR-8, 1900 for NCI-H460, and 4000 for CCD-18Co. After 24 h of incubation, they were treated for 72 h with different concentrations of the compounds (concentration range: 0.01 to 6 μM for OVCAR-8; 0.05 to 2 μM for NCI-H460; and 0.07 to 70 μM for CCD-18Co cells). When indicated, cells were also incubated with 30 µM of the ROS scavenger Manganese (III) 5,10,15,20-tetrakis (4-benzoic acid) porphyrin (MnTBAP) (Calbiochem, San Diego, CA, USA). Cell viability was measured using the MTT assay as previously described. The IC50 value corresponds to the concentration of the assayed compound that is required to inhibit the cell proliferation by 50%, and was calculated by linear interpolation from the obtained growth curves. All data are reported as the mean ± standard error (SE) calculated from at least three independent experiments with three replicates in each.
# [4] = tested on: MDA-MB-231 human breast carcinoma cells; assay: Cytotoxicity on MDA-MB-231; format: cell-based
# NCI-H460 cells [5] = assay: Apoptosis analysis, Annexin V-Alexa Fluor 488/PI flow cytometry, NCI-H460; format: cell-based, human; details: NCI-H460, 0.64 µM, 72 h
# Procedure: as §2
# MDA-MB-231 cells = assay: Transwell cell migration assay; format: cell-based, human; details: 0.1 µM, 24, 48 or 72 h
# Procedure: MDA-MB-231 cells were seeded into the upper chamber of a 24-well transwell insert (8 µm pore size; Sarstedt, Nümbrecht, Germany) at a density of 12,000 cells/0.5 mL RPMI 1640 medium with 0.5% FBS and treated with 0.1 µM compound 10 (corresponding to an IC20). The lower chamber was filled with 0.5 mL RPMI 1640 medium with 10% FBS as a chemoattractant. The cells on the upper side of the inserts were removed with a cotton swab after 24, 48, or 72 h of incubation at 37 °C. Cells that migrated to the lower side of the inserts were fixed for 30 min with 4% paraformaldehyde and stained for 20 min at room temperature with 0.2% crystal violet solution. Ten randomly selected fields at 200× magnification were counted using an Olympus CKX41 inverted microscope (Tokyo, Japan).
# [6] = tested on: OVCAR-8 human ovarian carcinoma cells; assay: Cell proliferation assay (MTT), OVCAR-8; format: cell-based
# Procedure: as §3
# [7] = tested on: CCD-18Co human colon fibroblasts; assay: Cell proliferation assay (MTT), non-tumor CCD-18Co; format: cell-based; details: non-tumor cells, 72 h exposure, mean ± SE
# Procedure: as §3
# OVCAR-8 cells [8] = assay: Cell cycle phase analysis (PI flow cytometry), OVCAR-8; format: cell-based, human; details: OVCAR-8, 0.8 µM, 72 h
# Procedure: (§4) NCI-H460 and OVCAR-8 cells were treated for 72 h with compound 10 (0.3 μM for NCI-H460 and 0.8 μM for OVCAR-8). Then, they were collected and fixed at −20 °C with 70% ethanol for at least 1 h. Fixed cells washed with cold PBS were resuspended in PBS at a cell density of 1–2 × 10^6 cells/mL, treated at 37 °C for 30 min with ribonuclease A (100 μg/mL) and PI (40 μg/mL) (Molecular Probes, Eugene, OR, USA), and analyzed by flow cytometric. At least 10,000 cells within the gated region were analyzed on a NovoCyte Flow Cytometer (ACEA Biosciences, San Diego, CA, USA). Cell cycle distribution was analyzed using NovoExpress software (ACEA Biosciences, San Diego, CA, USA).
# supercoiled pUC18 DNA = assay: DNA interaction analysis by agarose gel electrophoresis; format: biochemical; details: highest concentrations, 24 h, 37 °C, with H2O2
# Procedure: The interaction of DNA with the compounds was monitored in an agarose gel electrophoresis as previously described. […] Two other samples were included in the assays: a sample of pUC18 DNA alone as negative control and a sample of pUC18 DNA with 5 µg/mL cisplatin for comparison purposes. […] Gels were stained with ethidium bromide (1 µg/mL in TBE) for 15 min and DNA bands were visualized under UV light.
# NCI-H460 cells [9] = assay: Flow cytometric analysis of ROS generation (carboxy-H2DCFDA), NCI-H460; format: cell-based, human; details: NCI-H460, 0.7, 1.5 or 3 µM, 48 or 72 h
# Procedure: as §1
# NCI-H460 cells [10] = assay: Cell cycle phase analysis (PI flow cytometry), NCI-H460; format: cell-based, human; details: NCI-H460, 0.3 µM, 72 h
# Procedure: as §4
structure (smiles),measurement,setting,value
"CC#N.CC#N.CC#N.CC#N.Cc1cc(N=Cc2cccc(C)n2)c2c(c1)C1CC(O2)Oc2c(N=Cc3cccc(C)n3)cc(C)cc21.Cc1cc(N=Cc2cccc(C)n2)c2c(c1)C1CC(O2)Oc2c(N=Cc3cccc(C)n3)cc(C)cc21.F[B-](F)(F)F.F[B-](F)(F)F.F[B-](F)(F)F.F[B-](F)(F)F.[Fe+2].[Fe+2] [Compound 10, [Fe2(4)2(CH3CN)4](BF4)4]",ROS levels (fold-increase vs control),OVCAR-8 cells [1],ROS levels rise with time and concentration
same,percentage of cells that enter in apoptosis (early + late),OVCAR-8 cells [2],~66%
same,Early apoptotic cells (%),OVCAR-8 cells [2]; serum starved medium,36.12 ± 2.32%
same,Late apoptotic cells (%),OVCAR-8 cells [2]; serum starved medium,30.82 ± 2.60%
same,Necrotic cells (%),OVCAR-8 cells [2]; serum starved medium,1.27 ± 0.08%
same,Viable cells (%),OVCAR-8 cells [2]; serum starved medium,31.79 ± 3.27%
same,IC50,"[3]; 72 h exposure, MTT, mean ± SE",640 ± 50 nM
same,SI NCI-H460 (selectivity index),[3]; ratio IC50 CCD-18Co / IC50 NCI-H460,33.7
same,IC50,[4]; MDA-MB-231 cells,250 nM
same,"fold lower IC50 than that described for cisplatin, MDA-MB-231",[4]; cisplatin value from literature,about 250 fold
same,IC20,"[4]; concentration used in migration assay, corresponding to an IC20",100 nM
same,percentage of cells that enter in apoptosis (early + late),NCI-H460 cells [5],about 82%
same,Early apoptotic cells (%),NCI-H460 cells [5]; serum starved medium,13.72 ± 4.34%
same,Late apoptotic cells (%),NCI-H460 cells [5]; serum starved medium,68.61 ± 3.04%
same,Necrotic cells (%),NCI-H460 cells [5]; serum starved medium,1.29 ± 0.27%
same,Viable cells (%),NCI-H460 cells [5]; serum starved medium,16.37 ± 2.32%
same,Migration of MDA-MB-231 cells,MDA-MB-231 cells,significantly reduces the migration
same,IC50,"[6]; 72 h exposure, MTT, mean ± SE",1650 ± 260 nM
same,Cellular viability with vs without ROS scavenger MnTBAP,"[6]; OVCAR-8, MTT, 30 µM MnTBAP",MnTBAP reduces the antiproliferative effect
same,SI OVCAR-8 (selectivity index),[6]; ratio IC50 CCD-18Co / IC50 OVCAR-8,13.1
same,IC50,[7],21600 ± 3180 nM
same,% G0/G1,OVCAR-8 cells [8],41.91%
same,% G2/M,OVCAR-8 cells [8],28.36%
same,% S,OVCAR-8 cells [8],23.09%
same,% Sub-G1,OVCAR-8 cells [8],6.61%
same,Effect on cell cycle phase distribution vs untreated cells,OVCAR-8 cells [8],shift in the cell population from the G0/G1 phase to the S and G2/M phases
same,Effect on pUC18 DNA in the presence of H2O2 at the highest concentrations,supercoiled pUC18 DNA,total DNA degradation
same,ROS levels (fold-increase vs control),NCI-H460 cells [9],ROS levels rise with time and concentration
same,% G0/G1,NCI-H460 cells [10],57.62%
same,% G2/M,NCI-H460 cells [10],15.58%
same,% S,NCI-H460 cells [10],21.71%
same,% Sub-G1,NCI-H460 cells [10],5.10%
same,Effect on cell cycle phase distribution vs untreated cells,NCI-H460 cells [10],do not show significant changes in the cell cycle phase distribution

# Reference: article PMC9781652, “Dinuclear Iron Complexes of Iminopyridine-Based Ligands as Selective Cytotoxins for Tumor Cells and Inhibitors of Cancer Cell Migration” (Pharmaceutics, 2022)
